PubChem BioAssay AID1963432 (Molecular Pharmacology Branch, DTP, NCI, 2024)
pIC50: −log10 of the molar value.

Tested on: SYO-1 complex spheroid growth, percent test/control
Assay: Anticancer human tumor SYO-1 cell line growth inhibition [Asc];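 further: compound exposure lasted 7 days after spheroids grew 3 days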;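 on viability, T/C: 100% = DMSO vehicle control viability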
Conditions: for pIC50: curve of first compound; for viability, T/C: stronger effect = lower value
How it was run: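 Tumor cells were grown as complex spheroids with human endothelial cells (HUVEC) and human mesenchymal stem cells as stroma. Agents were tested alone and in combination, in half-log steps down from the clinical Cmax, or from 10 microM where Cmax was unknown.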

[1] = second compound 0.01 µM, first compound 0.00316 µM
[2] = second compound 0.01 µM, first compound 0.01 µM
[3] = second compound 0.01 µM, first compound 0.0316 µM
[4] = second compound 0.01 µM, first compound 0.1 µM
[5] = second compound 0.0316 µM, first compound 0.00316 µM
[6] = second compound 0.0316 µM, first compound 0.01 µM
[7] = second compound 0.0316 µM, first compound 0.0316 µM
[8] = second compound 0.0316 µM, first compound 0.1 µM
[9] = second compound 0.1 µM, first compound 0.00316 µM
[10] = second compound 0.1 µM, first compound 0.01 µM
[11] = second compound 0.1 µM, first compound 0.0316 µM
[12] = second compound 0.1 µM, first compound 0.1 µM
[13] = second compound 0.316 µM, first compound 0.00316 µM
[14] = second compound 0.316 µM, first compound 0.01 µM
[15] = second compound 0.316 µM, first compound 0.0316 µM
[16] = second compound 0.316 µM, first compound 0.1 µM
[17] = second compound 1 µM, first compound 0.00316 µM
[18] = second compound 1 µM, first compound 0.01 µM
[19] = second compound 1 µM, first compound 0.0316 µM
[20] = second compound 1 µM, first compound 0.1 µM

`COc1c(OCCCN2CCOCC2)ccc2c3n(c(=NC(=O)c4cnc(N)nc4)nc12)CCN3` + CNC(C)C(=O)NC1CN(S(=O)(=O)c2cccc(S(=O)(=O)N3CCC4CCC(C(=O)NC(c5ccccc5)c5ccccc5)N4C(=O)C(NC(=O)C(C)NC)C3)c2)CCC2CCC(C(=O)NC(c3ccccc3)c3ccccc3)N2C1=O was tested, and the pIC50 (second compound 0.01 µM) was under 6.00, the pIC50 (second compound 0.0316 µM) was under 6.00 and the pIC50 (second compound 0.1 µM) was under 6.00. For the same compound, the pIC50 (second compound 0.316 µM) was under 6.00, the pIC50 (second compound 1 µM) was under 6.00 and the viability, T/C [1] was 106%. It also gave a viability, T/C [2] of 109%, a viability, T/C [3] of 116% and a viability, T/C [4] of 106%. It also gave a viability, T/C (second compound 0.01 µM, first compound 0.316 µM) of 96%, a viability, T/C (second compound 0.01 µM, first compound 1 µM) of 68.3% and a viability, T/C [5] of 113%. The viability, T/C [6] was 126%, the viability, T/C [7] was 118% and the viability, T/C [8] was 110%. For the same compound, the viability, T/C (second compound 0.0316 µM, first compound 0.316 µM) was 98.2%, the viability, T/C (second compound 0.0316 µM, first compound 1 µM) was 72.9% and the viability, T/C [9] was 107%. For the same compound, the viability, T/C [10] was 119%, the viability, T/C [11] was 118% and the viability, T/C [12] was 107%. For the same compound, the viability, T/C (second compound 0.1 µM, first compound 0.316 µM) was 102%, the viability, T/C (second compound 0.1 µM, first compound 1 µM) was 68.7% and the viability, T/C [13] was 111%. For the same compound, the viability, T/C [14] was 122%, the viability, T/C [15] was 116% and the viability, T/C [16] was 105%. It also gave a viability, T/C (second compound 0.316 µM, first compound 0.316 µM) of 96.1%, a viability, T/C (second compound 0.316 µM, first compound 1 µM) of 69.2% and a viability, T/C [17] of 114%. The viability, T/C [18] was 124%, the viability, T/C [19] was 117% and the viability, T/C [20] was 113%. It also gave a viability, T/C (second compound 1 µM, first compound 0.316 µM) of 95.1% and a viability, T/C (second compound 1 µM, first compound 1 µM) of 73.3%.
For `NC(=O)C(=Cn1cnc(-c2cc(C(F)(F)F)cc(C(F)(F)F)c2)n1)c1cncnc1` + CNC(C)C(=O)NC1CN(S(=O)(=O)c2cccc(S(=O)(=O)N3CCC4CCC(C(=O)NC(c5ccccc5)c5ccccc5)N4C(=O)C(NC(=O)C(C)NC)C3)c2)CCC2CCC(C(=O)NC(c3ccccc3)c3ccccc3)N2C1=O, the pIC50 (second compound 0.01 µM) was 6.55, the pIC50 (second compound 0.0316 µM) was 6.54 and the pIC50 (second compound 0.1 µM) was 6.59. It also gave a pIC50 (second compound 0.316 µM) of 6.62, a pIC50 (second compound 1 µM) of 6.70 and a viability, T/C (second compound 0.01 µM, first compound 0.000949 µM) of 102%. It also gave a viability, T/C (second compound 0.01 µM, first compound 0.003 µM) of 101%, a viability, T/C (second compound 0.01 µM, first compound 0.00949 µM) of 111% and a viability, T/C (second compound 0.01 µM, first compound 0.03 µM) of 104%. It also gave a viability, T/C (second compound 0.01 µM, first compound 0.0949 µM) of 98%, a viability, T/C (second compound 0.01 µM, first compound 0.3 µM) of 47.1% and a viability, T/C (second compound 0.0316 µM, first compound 0.000949 µM) of 99.2%. It also gave a viability, T/C (second compound 0.0316 µM, first compound 0.003 µM) of 105%, a viability, T/C (second compound 0.0316 µM, first compound 0.00949 µM) of 106% and a viability, T/C (second compound 0.0316 µM, first compound 0.03 µM) of 108%. It also gave a viability, T/C (second compound 0.0316 µM, first compound 0.0949 µM) of 102%, a viability, T/C (second compound 0.0316 µM, first compound 0.3 µM) of 48.4% and a viability, T/C (second compound 0.1 µM, first compound 0.000949 µM) of 109%. It also gave a viability, T/C (second compound 0.1 µM, first compound 0.003 µM) of 106%, a viability, T/C (second compound 0.1 µM, first compound 0.00949 µM) of 102% and a viability, T/C (second compound 0.1 µM, first compound 0.03 µM) of 97.6%. It also gave a viability, T/C (second compound 0.1 µM, first compound 0.0949 µM) of 102%, a viability, T/C (second compound 0.1 µM, first compound 0.3 µM) of 42.6% and a viability, T/C (second compound 0.316 µM, first compound 0.000949 µM) of 103%. For the same compound, the viability, T/C (second compound 0.316 µM, first compound 0.003 µM) was 110%, the viability, T/C (second compound 0.316 µM, first compound 0.00949 µM) was 111% and the viability, T/C (second compound 0.316 µM, first compound 0.03 µM) was 105%. For the same compound, the viability, T/C (second compound 0.316 µM, first compound 0.0949 µM) was 105%, the viability, T/C (second compound 0.316 µM, first compound 0.3 µM) was 36.3% and the viability, T/C (second compound 1 µM, first compound 0.000949 µM) was 114%. For the same compound, the viability, T/C (second compound 1 µM, first compound 0.003 µM) was 106%, the viability, T/C (second compound 1 µM, first compound 0.00949 µM) was 111% and the viability, T/C (second compound 1 µM, first compound 0.03 µM) was 105%. It also gave a viability, T/C (second compound 1 µM, first compound 0.0949 µM) of 97.5% and a viability, T/C (second compound 1 µM, first compound 0.3 µM) of 23.6%.
`NC1CCC(NC2CC2c2ccccc2)CC1` (stereo not given) + CNC(C)C(=O)NC1CN(S(=O)(=O)c2cccc(S(=O)(=O)N3CCC4CCC(C(=O)NC(c5ccccc5)c5ccccc5)N4C(=O)C(NC(=O)C(C)NC)C3)c2)CCC2CCC(C(=O)NC(c3ccccc3)c3ccccc3)N2C1=O was tested, and the pIC50 (second compound 0.01 µM) was under 7.00, the pIC50 (second compound 0.0316 µM) was under 7.00 and the pIC50 (second compound 0.1 µM) was under 7.00. It also gave a pIC50 (second compound 0.316 µM) of under 7.00, a pIC50 (second compound 1 µM) of under 7.00 and a viability, T/C (second compound 0.01 µM, first compound 0.000316 µM) of 109%. For the same compound, the viability, T/C (second compound 0.01 µM, first compound 0.001 µM) was 104%, the viability, T/C [1] was 97.4% and the viability, T/C [2] was 89.4%. It also gave a viability, T/C [3] of 88.1%, a viability, T/C [4] of 86.2% and a viability, T/C (second compound 0.0316 µM, first compound 0.000316 µM) of 106%. The viability, T/C (second compound 0.0316 µM, first compound 0.001 µM) was 94%, the viability, T/C [5] was 89.7% and the viability, T/C [6] was 85.6%. It also gave a viability, T/C [7] of 87.5%, a viability, T/C [8] of 87.5% and a viability, T/C (second compound 0.1 µM, first compound 0.000316 µM) of 102%. The viability, T/C (second compound 0.1 µM, first compound 0.001 µM) was 92.5%, the viability, T/C [9] was 86.7% and the viability, T/C [10] was 91.3%. The viability, T/C [11] was 94.8%, the viability, T/C [12] was 91% and the viability, T/C (second compound 0.316 µM, first compound 0.000316 µM) was 99.8%. It also gave a viability, T/C (second compound 0.316 µM, first compound 0.001 µM) of 97.5%, a viability, T/C [13] of 90.5% and a viability, T/C [14] of 90.3%. It also gave a viability, T/C [15] of 86.6%, a viability, T/C [16] of 86.2% and a viability, T/C (second compound 1 µM, first compound 0.000316 µM) of 103%. It also gave a viability, T/C (second compound 1 µM, first compound 0.001 µM) of 99.1%, a viability, T/C [17] of 91.2% and a viability, T/C [18] of 89.6%. For the same compound, the viability, T/C [19] was 88.5% and the viability, T/C [20] was 86.4%.
